According to patent US20230255197A1, “INFLUENCE OF THE MORPHOLOGICAL AND THE STRUCTURAL CHANGES ON THE ANTIMICROBIAL ACTIVITIES OF TITANATE NANOWIRES” (BOARD OF TRUSTEES OF THE UNIVERSITY OF ARKANSAS, priority 2022, published 2023):

Test system: E. coli cells
Assay: E. coli growth in LB medium in 96-well plates, cell growth monitored by absorbance at 600 nm
Assay type: cell-based
Settings: 37° C., O.D. at 600 nm = 0.25, read from FIG. 2, chloramphenicol:nanomaterial w/w 1:10
Procedure: In step (3), to test the antimicrobial efficiency, solution of E. coli cells were inoculated into fresh LB medium and incubated at 37° C. overnight. In one embodiment, 5µL solution of E. coli cells was inoculated into 2 ml of fresh LB medium. Sample of the overnight culture was transferred into each well of a 96-well plate and further grown with 200 µL fresh LB medium. To test antimicrobial activities, different concentrations of antimicrobial agents alone, TiO2 alone, and TiO2 nanowires - chloramphenicol complex were added to the LB medium with E. coli cells. It should be noted that same procedure was followed to prepare different concentrations (1, 2, 3, 4, and 5 µg/ml) of either chloramphenicol alone, nanomaterials alone or a mixture of both. Three identical replicates were prepared on the plate for each assigned material. Then, the 96-well plates were sealed with an oxygen-permeable membrane and the cell growth was monitored by reading the absorbance at 600 nm with microplate readers at 37° C. continuously. Equal amounts of chloramphenicol were mixed with each sample of the assigned version of nanomaterials (Na-TiO2 and K-TiO2) with a w/w ratio of 1:10. […]

## O=C(N[C@H](CO)[C@H](O)c1ccc([N+](=O)[O-])cc1)C(Cl)Cl [chloramphenicol]
  concentration of chloramphenicol necessary to reach the same O.D. reading 0.25 (same degree of antimicrobial activity): 5 µg/mL
